# Laboratory results: patent US8071376B2, “Production of oligodendrocytes from placenta-derived stem cells” (Anthrogenesis Corporation, priority 2005, dated 2011)
# How the values were obtained:
# OPCs [1] = details: cells cultured 72 hrs with 1 μM staurosporine; background 10,000 cpm; Ebner 2000; cited from earlier work
# [2] = test system: oligodendrocyte progenitors; experiment: Quantitative 3H-thymidine incorporation proliferation assay; format: cell-based; details: recombinant growth factor; background 500-1000 cpm without growth factor
# Description: Proliferation assay: The ability of oligodendrocyte progenitors to generate a mitogenic response to specific ligands is measured in a quantitative ^3H-thymidine incorporation assay. Cells are exposed to growth factors, in a dose range that brackets the maximal response to FGF and PDGF, in order to determine the half-maximal response. Responses range from a background of 500-1000 cpm (no growth factor) to 10,000 cpm (recombinant PDGF-AA), and the assay is sufficiently sensitive to accurately detect partial mitogenic responses. All cell proliferation assays are optionally performed at least three independent times. For qualitative assays, cells are exposed to mitogens with 50 μM BrdU (Sigma) present for the final 4 hrs, and DNA synthesis is monitored by dual immunofluorescence for BrdU (Osterhout et al., J. Neurosci. 17:9122-9132 (1997)) and a second lineage marker.
# Proliferation assays are performed on cells that have been removed from mitogens for 24 hrs prior to exposure to recombinant growth factors to reduce background levels of DNA synthesis. […] Nucleic acid is recovered using an automatic harvester (Brandel) and the incorporated radioactivity measured by scintillation counting. […]
# OPCs [3] = details: background migration 1,000 cells/mm^2; Armstrong et al. 1990; cited from earlier work
Molecule,32P incorporation into 3'-ends of DNA (OPCs [1]),"mitogenic response, 3H-thymidine incorporation [2]","chemotaxis, cells migrated (OPCs [3])"
CN[C@@H]1C[C@H]2O[C@@](C)([C@@H]1OC)n1c3ccccc3c3c4c(c5c6ccccc6n2c5c31)C(=O)NC4 [staurosporine],"100,000 cpm",–,–
"PDGF-AA: recombinant (human) polypeptide growth factor, oligodendrocyte progenitor cell mitogen",–,"10,000 cpm","4,000 cells/mm^2"
